Publication PMC3673936, “Molecular Characterization and Functions of Fatty Acid and Retinoid Binding Protein Gene (Ab-far-1) in Aphelenchoides besseyi” (PLoS ONE, 2013)

Each compound was assayed against T1, rAb-FAR-1 (Aphelenchoides besseyi, UniProt R9QS34) (assay: fluorescence titration).
T1 construct: E. coli BL21(DE3), pET-32a (BamHI/XhoI), N-terminal His-tag fusion, Ni-purified; ORF 181 aa with predicted signal peptide; called full-length, primer FARf-BamHI lacks ATG at its start
T1 sequence (R9QS34 entry or part of it): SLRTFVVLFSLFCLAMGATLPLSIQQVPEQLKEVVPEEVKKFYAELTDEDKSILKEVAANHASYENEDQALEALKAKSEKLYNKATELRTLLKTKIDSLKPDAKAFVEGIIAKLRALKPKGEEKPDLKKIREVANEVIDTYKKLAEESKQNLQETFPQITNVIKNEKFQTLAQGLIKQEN
Assay type: binding
`CC\C=C/C=C/C=C/C=C\CCCCCCCC(=O)O` [cis-parinaric acid] was tested, and the Kd was 6.69 µM. `CN(C)c1cccc2c(S(=O)(=O)NCCCCCCCCCCC(=O)O)cccc12` [DAUDA, 11-((5-dimethylaminonaphthalene-1-sulfonyl)amino) undecannoic acid] was tested, and the Kd was 3.4 µM. `CC1=C(/C=C/C(C)=C/C=C/C(C)=C/CO)C(C)(C)CCC1` [retinol] gave a Kd of 3.41 µM.
